In the supplement of paper PMC9549728:
Structures can show the parent of a compound that is named as a salt.

How the values were obtained:
Test in all cases: IC50 (viability, PrestoBlue) (log10 nM)
Conditions in all cases: exposure time: 72 h
[1] = test system: murine gastric organoid RAS-activated (Kras G12D; Tp53 R172H)
Method: (§1)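 Murine gastric corpus organoids (normal uninduced; RAS-activated Kras G12D/Tp53 R172H; diffuse Cdh1/Apc loss; WNT-activated Apc loss/Tp53 R172H) were seeded in Matrigel into pre-spotted 384-well plates. The plates held a 196-compound library at 6.7 nM to 25,004 nM (9 doses) and were incubated 72 h. Viability was read by PrestoBlue fluorescence (560/590 nm). IC50 came from non-linear regression (Prism), reported as log10 IC50 in nM, mean of 3 passages x 2 wells.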

[2] = test system: murine gastric organoid WNT-activated (Apc fl/fl; Tp53 R172H)
Method: as §1

[3] = test system: murine gastric organoid diffuse (Cdh1 fl/fl; Apc fl/fl)
Method: as §1

[4] = test system: murine normal gastric organoid
Method: as §1

SMILES	IC50 (log10 nM) [1]	IC50 (log10 nM) [2]	IC50 (log10 nM) [3]	IC50 (log10 nM) [4]
O=c1[nH]c(=O)n([C@H]2C[C@H](O)[C@@H](CO)O2)cc1F [Floxuridine]	3.16	1.61	3.8	2.96
COc1ccc(/C=C\c2cc(OC)c(OC)c(OC)c2)cc1OP(=O)(O)O [Fosbretabulin disodium]	2.23	1.85	2.47	< 0.826
CN(C)c1ccccc1CN1CCCN(Cc2ccccc2N(C)C)C1c1ccncc1 [GANT-61]	1.22	2.6	2.53	1.27
Cn1nccc1Nc1nccc(-c2ccn([C@H](CO)c3ccc(Cl)c(F)c3)c(=O)c2)n1 [GDC-0994]	4.35	2.88	3.23	3.71
CC(C)c1cc(-c2n[nH]c(=O)n2-c2ccc3c(ccn3C)c2)c(O)cc1O [Ganetespib]	1.59	< 0.826	1.5	1.59
COc1cc2ncnc(Nc3ccc(F)c(Cl)c3)c2cc1OCCCN1CCOCC1 [Gefitinib]	4.06	2.38	2.65	1.98
Nc1ccn([C@@H]2O[C@H](CO)[C@@H](O)C2(F)F)c(=O)n1 [Gemcitabine]	1.54	1.74	1.53	1.23
COC(=O)C[C@](O)(CCCC(C)(C)O)C(=O)O[C@@H]1C(OC)=C[C@]23CCCN2CCc2cc4c(cc2[C@H]13)OCO4 [Homoharringtonine]	1.56	0.956	1.82	1.91
C=CCc1ccc(O)c(-c2ccc(O)c(CC=C)c2)c1 [Honokiol]	4.12	3.87	4.28	3.97
CC(C)n1nc(-c2ccc3oc(N)nc3c2)c2c(N)ncnc21 [INK 128]	1.45	> 4.4	1.42	1.21
C=CC(=O)N1CCC[C@@H](n2nc(-c3ccc(Oc4ccccc4)cc3)c3c(N)ncnc32)C1 [Ibrutinib]	4.23	2.48	2.53	2.2
CC(=O)[C@]1(O)Cc2c(O)c3c(c(O)c2[C@@H](O[C@H]2C[C@H](N)[C@H](O)[C@H](C)O2)C1)C(=O)c1ccccc1C3=O [Idarubicin hydrochloride]	< 0.826	0.851	1.41	1.1
CC(C)C[C@H](NC(=O)CNC(=O)c1cc(Cl)ccc1Cl)B(O)O [Ixazomib (MLN9708)]	2.12	2.6	2.51	2.8
Cc1cc(Nc2ncc(Cl)c(Nc3ccccc3S(=O)(=O)C(C)C)n2)c(OC(C)C)cc1C1CCNCC1 [LDK378]	3.08	2.55	2.8	2.84
COC(=O)N[C@@H](C)CNc1nccc(-c2cn(C(C)C)nc2-c2cc(Cl)cc(NS(C)(=O)=O)c2F)n1 [LGX818]	< 0.826	2.62	< 0.826	3.91
CS(=O)(=O)CCNCc1ccc(-c2ccc3ncnc(Nc4ccc(OCc5cccc(F)c5)c(Cl)c4)c3c2)o1 [Lapatinib]	3.12	2.43	2.84	2.54
Cc1ccc(F)c(NC(=O)Nc2ccc(-c3cccc4[nH]nc(N)c34)cc2)c1 [Linifanib]	3.05	3.77	4.2	3.7
C[C@]1(O)C[C@@H](c2nc(-c3ccc4ccc(-c5ccccc5)nc4c3)c3c(N)nccn32)C1 [Linsitinib]	< 0.826	2.69	3.68	2.84
